Laboratory results as given in patent publication US11351178B2, “Selective HDAC6 inhibitors” (ITALFARMACO S.P.A., priority 2017, dated 2022).

Key:
[1] = tested on: H3 histone acetylation in 697 cell line; assay: In vitro H3 histone acetylation in 697 cell line; format: cell-based
Experimental: (§1) The in vitro α-tubulin and H3 histone acetylation determination was evaluated on B 697 […] cell line.
(§2) The test molecules were diluted from 20 mM stock solution in DMSO with RPMI 10% FCS+0.01% DMSO medium at 20× concentration compared to the final concentration, added to the cells (15×10^6 cells in a total volume of 30 ml in RPMI medium 10% FCS+0.01% DMSO) to obtain the final concentrations of 1000, 333, 111 and 37 nM and incubated at 37° C., 5% CO2 for 16 hours.
The remaining cells (10×10^6) were treated by acid extraction of histones (Kazuhiro et al., PNAS (2002), 99 (13) 8921-8926). Cells were centrifuged 5 min at 1100 rpm at 4° C. and washed once in 0.9% NaCl. The resulting pellet was lysed with […] (10 mM Tris.HCl, pH 6.5/50 mM sodium bisulphite, 1% Triton X-100/10 mM MgCl2/8.6% saccharose containing the protease inhibitor mixture (Roche)) for 20 min at 4° C. The resulting nucleus pellet was repeatedly washed in buffer until supernatant clarification (centrifuged at 7,500×g, 5 minutes after each wash) and finally washed in nucleus buffer (10 mM Tris.HCl/13 mm EDTA, pH 7, 4) and resuspended in 250 μl of 0.2 M HCl/H2SO4. Histone proteins were extracted in an acidic environment by incubating overnight at 4° C. under gentle shaking. After centrifugation at 14,000 rpm at 4° C. for 10 minutes, 1250 μl of cold acetone was added to the supernatant and incubated overnight at −20° C., resulting in the precipitation of histone proteins. The pellet obtained after centrifugation for 10 minutes at 14000 rpm and 4° C. was washed with cold acetone, evaporated to dryness and resuspended in 50 μl distilled water. The protein content determination of both total and histone extracts was carried out by a colorimetric assay using a BCA Protein Assay Kit (Pierce cat: 23227).
H3 histone acetylation and total H3 amount were quantified by commercial ELISA assays PathScan acetylated histone H3 Sandwich Elisa kit, cat #7232C and PathScan total histone H3 Sandwich Elisa Kit, cat #7253C Cell Signaling) according to supplier reported method and by detecting absorbance at 450 nm wavelength using Multiskan Spectrum. ELISA tests were performed by analysing 0.250 μg and 0.500 μg of histone extract of each sample. The degree of acetylation was calculated by dividing H3 histone absorbance by histone total absorbance.
(§3) Test results of tubulin and H3 histone acetylation, expressed as fold increase of ratio of acetylated α-tubulin/total α-tubulin and H3Ac/H3Tot, respectively, of each sample relative to the control sample (untreated) are summarized in Tables 6 and 6′.

[2] = format: in vivo; conditions: mouse, Day 12, 100 mg/Kg ip
Experimental: Following chronic intraperitoneal administration in C57BL/6 mice, compounds MTD was estimated by clinical (body weight and behaviour) and blood (white blood cells and platelets) parameters evaluation. The compounds were administered after dissolution in a H2O/PEG400 mixture in ratio 1:1 w/w containing 5% DMSO (for compound 17, 20% DMSO was used).
All animals were weighed the day before the treatment (day 0) and the average body weight was determined.
Animals (8 animals per group) were treated once a day starting from Day 1 during 5 consecutive days per week with: • a) the compounds at doses of 10, 30, 50 mg/kg ip, • b) Givinostat at 100 mg/kg (internal control) and • c) the vehicle solutions used for solubilizing the substances.
The volume of the solutions administered was 10 mL/Kg. The treatment was repeated for 2 weeks, for a total of 10 treatments/group.
On a daily basis any clinical sign (skin appearance, mobility and animal reactivity, respiration, etc.) indicating a possible toxicity of the compounds has been reported. The animal weight was evaluated on days 2, 4, 9 and 11.
On Day 1, 3, 5, 8, 10 and 12, blood sample (about 50 μL) were taken from the tail of the animal to evaluate the effect of the substances on blood parameters. Withdrawals were performed on 4 animals per group on alternate days.
Samples were harvested in tubes containing EDTA, appropriately diluted in physiological solution and analysed with a cell counter.
At the end of the study (day 12) the animals were sacrificed 60 minutes after the last treatment. Gross necropsy evaluation was performed to detect any internal organ abnormalities. Table 8 summarizes the data obtained in MTD determination experiments for some of the compounds according to the invention. Givinostat is a HDAC pan inhibitor and was used as a reference. The tested molecules are well tolerated.

[3] = tested on: α-tubulin acetylation in 697 cell line; assay: In vitro α-tubulin acetylation in 697 cell line; format: cell-based
Experimental: as §1, §2
At the end of the incubation period, 5×10^6 cells were taken from each sample, centrifuged for 5 minutes at 1100 rpm and washed in 0.9% NaCl at 4° C. The resulting pellet was lysed by treating at 4° C. for 30 minutes with 150 μl of Complete Lysis-M (Roche, cat-04719956051) containing protease inhibitors and phosphatase (Complete Easy Pack proteinase inhibitor cocktail tablets cat: 04693116001, Phostop easypack phosphatase inhibitor cocktails, cat: 01906837001—Roche), then centrifuged 10 minutes at 14,000 rpm (20817×g). 0.150 μg of supernatant (total protein extract) were diluted in 100 μl of 1×PBS and immobilized in Maxisorp F96 NUN-IMMUNO Plate (Nunc cat #5442404) at room temperature overnight. Plates were washed twice with Wash Buffer (PBS1X+0.005% tween 20) and saturated for 1 hour at room temperature with 300 μL of 1×PBS containing 10 FCS. After washing with buffer (1×PBS containing 0.005% tween), the plates were incubated for two hours at room temperature in the presence of anti-acetylated-α-tubulin antibody (Monoclonal Anti-acetylated-tubulin clone 6-11B-1, mouse ascites fluid, cat #T6793 Sigma, 100 μl diluted 1:1000 in 1×PBS containing 10% FCS) or with total anti-α-tubulin antibody (Monoclonal Anti alpha-tubulin produced in mouse, cat #T6074 Sigma). After washing, 100 μl per well of TMB substrate kit was added for 10 minutes at room temperature in the dark. The reaction was stopped by adding 50 μl of 2N H2SO4. The plates were read at Multiskan Spectrum spectrophotometer at a wavelength of 450 nm.
The degree of acetylation was calculated by dividing the absorbance obtained for acetylated α-tubulin by the absorbance of total α-tubulin.
as §3

## CCN(CC)Cc1ccc2cc(COC(=O)Nc3ccc(C(=O)NO)cc3)ccc2c1 [Givinostat, reference compound]
[1]
  H3 histone acetylation (in words): good acetylation of both tubulin and H3 histone
[1]; 16 h, conc 111 nM, read-out: Acetylation of H3 histone (fold increase of acetylated H3/total H3 towards control)
  fold induction at 0.111 µM: 8
[1]; 16 h, conc 333 nM, read-out: Acetylation of H3 histone (fold increase of acetylated H3/total H3 towards control)
  fold induction at 0.333 µM: 17
[1]; 16 h, conc 1000 nM, read-out: Acetylation of H3 histone (fold increase of acetylated H3/total H3 towards control)
  fold induction at 1 µM: 23
[2]
  Body weight % vs control: 0.9%
  Platelet % vs control: −7%
  White blood cells % vs control: −72%
[3]
  tubulin acetylation (in words): good acetylation of both tubulin and H3 histone
[3]; Conc 37 nM, 16 hours, read-out: Tubulin acetylation (ratio of acetylated tubulin and total tubulin towards control)
  fold induction at 0.037 µM: 1
[3]; Conc 111 nM, 16 hours, read-out: Tubulin acetylation (ratio of acetylated tubulin and total tubulin towards control)
  fold induction at 0.111 µM: 4
[3]; Conc 333 nM, 16 hours, read-out: Tubulin acetylation (ratio of acetylated tubulin and total tubulin towards control)
  fold induction at 0.333 µM: 12
[3]; Conc 1000 nM, 16 hours, read-out: Tubulin acetylation (ratio of acetylated tubulin and total tubulin towards control)
  fold induction at 1 µM: 18
